Laboratory results taken from patent US10245847B2, “Reaction solution and ink jet recording method” (Seiko Epson Corporation, priority 2016, dated 2019).

Legend:
[1] = log P value (water octanol distribution coefficient) of organic solvents
From the text: Here, regarding several organic solvents, a log P value (water octanol distribution coefficient) will be described below. […] Note that, numbers in parentheses indicate log P values.
Here, “log P value” means an index indicating the hydrophobicity of the compound. The log P value indicates the ratio of the solutes distributed in these two layers in the octanol/water system. In other words, the larger the log P value of the solute is, the higher the hydrophobicity is, and it dissolves well in the octanol phase. Further, the fact that the log P values of the two kinds of substances are approximate means that the hydrophobicity of each is similar. The log P value can be obtained by, for example, a flask shaking method in which a solute and two kinds of solvents are actually put into a flask and are stirred well, and an HPLC method using high performance liquid chromatography (HPLC).

[2] = degree of solubility with respect to an aqueous solution having a concentration of 2-pyrrolidone of 20% by mass; details: 20% by mass 2-pyrrolidone aqueous solution, 25° C.
[3] = LogP, Table 2, organic solvents of the reaction solution
[4] = LogP, Table 3, organic solvents of the reaction solution

Compound	logP [1]	Solubility to 2-pyrrolidone aqueous solution ([2]; Table 2) [%]	Solubility to 2-pyrrolidone aqueous solution ([2]; Table 3) [%]	other results
CCC(O)CO (stereo not drawn) [1,2-butanediol]				logP ([1]; octanol/water): 0.06; Solubility to 2-pyrrolidone aqueous solution ([2]; Table 1): ≥1%
COC(C)CCO (stereo not drawn) [3-methoxy-1-butanol]	0.07	≥1	≥1	
COC(C)(C)CCO [3-methoxy-3-methylbutanol]	-0.63			
COCCC(=O)N(C)C [3-methoxy-N,N-dimethyl propanamide]				LogP [1]: 0.73
CC(=O)OCCOC(C)=O [Ethylene glycol diacetate]	0.4			LogP [1]: 0.40
OCC(O)CO [Glycerin]				LogP [1]: −1.76
CCC(=O)N(C)C [N,N-dimethyl propionamide]	0.46		≥1	
CCCCOCCOCCOCCCC [diethylene glycol di-n-butyl ether]	1.92			LogP [1]: 1.92
CCOCCOCCOC [diethylene glycol ethyl methyl ether]	0.69	≥1	≥1	
CCCCOCCOCCO [diethylene glycol monobutyl ether]	1.19			
COCCOCCO [diethylene glycol monomethyl ether]		≥1	≥1	logP [1, 3]: -1.18; logP [1, 4]: -1.18
CCCCCCOCCO [ethylene glycol mono-n-hexyl ether]	1.57	≥1	≥1	
CCCCOCCOC(C)=O [ethylene glycol monobutyl ether acetate]		≥1	≥1	logP ([1]; octanol/water): 1.79
CC(=O)OCC(C)OC(C)=O (stereo not drawn) [propylene glycol diacetate]	0.74			
CCC(=O)OCC(C)OC(=O)CC (stereo not drawn) [propylene glycol dipropionate]	1.76			
CCCCOCC(C)O (stereo not drawn) [propylene glycol monobutyl ether]	1.19	≥1	≥1	
CCCOCC(C)O (stereo not drawn) [propylene glycol monopropyl ether]	-0.81			
CC(O)CO (stereo not drawn) [propylene glycol]	-1.4			
COCCOCCOCCOC [triethylene glycol dimethyl ether]	-0.67			
CCCCOCCOCCOCCO [triethylene glycol monobutyl ether]	0.51			
O=C1CCCO1 [γ-butyrolactone]		≥1	≥1	logP [1, 3]: -0.64; logP [1, 4]: -0.64; logP ([1]; log P value (water octanol distribution coefficient), octanol/water): -0.64
polyethylene glycol monomethyl ether		≥1	≥1	LogP [1]: 0.80
